Columns and labels:
[1] = tested on: melanoma cell lines WC00046, WC00060 and WC00081; assay: Cell survival (cell count) after irradiation with or without mitochondrial inhibitors; assay type: cell-based, human; conditions: compared to untreated cells, FIG. 1B; for cell killing of melanoma cells: inhibitor combined with high dose rate 2,400 mu/min, 5 μM in medium; for survival rates: melanoma cells, doses 2 Gy, 4 Gy and 8 Gy at 2,400 mu/min and 400 mu/min
Protocol: Three melanoma cell lines; WC00046, WC00060 and WC00081 were used in these examples, in which WC00046 was the most aggressive cell line (metastatic stage II), WC00060 was least aggressive (stage I, primary tumor site) and WC00081 was the medium aggressive (malignant melanoma primary site), purchased from Coriell Institute of Camden, N.J. The primary HEM (human epidermal melanocytes) was purchased from ScienCell Research Laboratories of Carlsbad, Calif. (#2220). Melanoma cells were grown in RPMI (Invitrogen) with 10% FBS, 1% Penicillin/Streptomycin. HEM cells were grown in Mel-M media (ScienCell Research Laboratories, Catalog number 2201) supplemented with 5 ML, Mel GS (ScienCell Research Laboratories, Catalog number 2252), 2.5 ML FBS (ScienCell Research Laboratories, Catalog number 0002) and 5 ML penicillin/Streptomycin solution (ScienCell Research Laboratories, Catalog number 0503), which is a complete medium designed for optimal growth of normal human dermal-derived melanocytes in vitro.
Two mitochondrial inhibitors Oligomycin (Sigma Aldrich # O4876) and Rotenone (Sigma Aldrich #R8875) were used. An optimal concentration of 0.5 uM were used for both melanoma cell lines and HEM added to the growth medium and removed after the irradiation. Dilutions were made in DMSO according to manufacturer's instructions.
Melanoma cell lines WC00046, WC00060 and WC00081 (purchased from Coriell Institute of Camden, N.J.) were seeded at 5×10^5 cells in T-25 culture flasks (BD-Falcon, Franklin Lakes, N.J., Catalog #356536 or equivalent) containing either RPMI media (Invitrogen, Carlsbad, Calif., Catalog #11875119 or equivalent) with 10% fetal bovine serum (FBS; ATCC Catalog #30-2020 or equivalent), 1% Penicillin/Streptomycin (GIBCO, Carlasbad, Calif., Catalog #15140 or equivalent) or RPMI media with 10% FBS, 1% Penicillin/Streptomycin, 5 μM Oligomycin (Sigma-Aldrich, St. Louis, Mo., Catalog #04876) or RPMI media with 10% FBS, 1% Penicillin/Streptomycin, 5 μM Rotenone (Sigma-Aldrich, St. Louis, Mo., Catalog #R8875). Human Epidermal Melanocytes (HEM) (ScienCell Research Laboratories, Carlsbad, Calif., Catalog #2220) were seeded at 5×10^5 cells in a T-25 culture flask (BD-Falcon, Franklin Lakes, N.J., Catalog #356536 or equivalent) containing either Mel-M media (ScienCell Research Laboratories, Carlsbad, Calif., Catalog #2201) or Mel-M media, 5 μM Oligomycin or Mel-M media, 5 μM Rotenone. Cells were allowed to settle and adhere to the T-25 culture flasks by overnight incubation in a humidified incubator at 37° C., 5% CO2. […] Cells were counted and cell survival (%) was recorded two (2) days and seven (7) days post radiation.

melanoma cells [2] = assay: MTT cell proliferation assay in irradiated cells; assay type: cell-based, human; conditions: seven days post-irradiation, relative to irradiation alone, FIG. 2B
Protocol: MTT assay was carried out to measure the cell proliferation in radiated cells. Cells were seeded in […] and incubated with MTT assay reagent (tetrazolium dye). MTT assay is based on the ability of metabolically active cells to reduce the yellow tetrazolium salt (MTT) by to form insoluble purple formazan crystals, which are solubilized by the addition of a detergent and quantified (i.e., color). The MTT Cell Proliferation Assay measures the cell proliferation rate and conversely, when metabolic events lead to apoptosis or necrosis, the reduction in cell viability. The number of assay steps has been minimized as much as possible to expedite sample processing. The MTT Reagent yields low background absorbance values in the absence of cells. For each cell type the linear relationship between cell number and signal produced is established, thus allowing an accurate quantification of changes in the rate of cell proliferation.
An MTT (tetrazolium dye) assay was performed to measure cell proliferation in irradiated melanoma cells and HEM. The MTT assay is based on the ability of metabolically active cells to reduce yellow tetrazolium salt (MTT) to insoluble purple formazan crystals. The formazan crystals are solubized in detergent and quantified by colorimetric analysis. […]

melanoma cells [3] = assay: Mitotracker Red assay of mitochondrial activity in irradiated cells; assay type: cell-based, human; conditions: irradiated cells with mitochondrial respiration blocked, versus non-irradiated control (Dose 0); FIG. 2A
Protocol: Mitotracker Red CMXRos (Invitrogen-M7512) was used for mitotracker assay. Stock solution was prepared in anhydrous DMSO, and the aliquots were stored in −30° C. Stock solution was diluted with culture media prior to the assay. Cells were treated with Mitotracker working solution (200 nM) and incubated for 15 minutes (37° C., 5% CO2). Labeling solution was removed and cells were washed with 1×PBS followed by fixing with 2% PFA (paraformaldehyde) for 30 minutes at room temperature in dark. Cells were washed with 1×PBS and mounted using DAPI and images were taken immediately.
It is well-known that melanoma cells up-regulate mitochondrial respiration to partly overcome the damage caused by radiation treatment (Rafehi, H et al., “Clonogenic assay: adherent cells.” J. Vis. Exp. 2011 Mar. 13;(49). pii: 2573. doi: 10.3791/2573). In this study, Mitotracker® Red was used to determine mitochondrial activity in irradiated melanoma cells and HEM. Mitotracker® Red is a cell permeant mitochondrial probe that diffuses through the plasma membrane of active mitochondria and is retained there even after fixation of cells. That is, mitochondrial activity is a direct measure of the amount of fluorescent Mitotracker® Red accumulated within the mitochondria.
A Mitotracker® Red CMXRos (Invitrogen, Carlsbad, Calif., Catalog #M7512 or equivalent) assay was performed according to manufacturer's instructions. […]

[4] = tested on: Human Epidermal Melanocytes (HEM); assay: Cell survival (cell count) after irradiation with or without mitochondrial inhibitors; assay type: cell-based; conditions: doses 2 Gy, 4 Gy and 8 Gy at 2,400 mu/min and 400 mu/min, compared to untreated cells, FIG. 1B
Protocol: Three melanoma cell lines; WC00046, WC00060 and WC00081 were used in these examples, in which WC00046 was the most aggressive cell line (metastatic stage II), WC00060 was least aggressive (stage I, primary tumor site) and WC00081 was the medium aggressive (malignant melanoma primary site), purchased from Coriell Institute of Camden, N.J. The primary HEM (human epidermal melanocytes) was purchased from ScienCell Research Laboratories of Carlsbad, Calif. (#2220). Melanoma cells were grown in RPMI (Invitrogen) with 10% FBS, 1% Penicillin/Streptomycin. […]
Melanoma cell lines WC00046, WC00060 and WC00081 (purchased from Coriell Institute of Camden, N.J.) were seeded at 5×10^5 cells in T-25 culture flasks (BD-Falcon, Franklin Lakes, N.J., Catalog #356536 or equivalent) containing either RPMI media (Invitrogen, Carlsbad, Calif., Catalog #11875119 or equivalent) with 10% fetal bovine serum (FBS; ATCC Catalog #30-2020 or equivalent), 1% Penicillin/Streptomycin (GIBCO, Carlasbad, Calif., Catalog #15140 or equivalent) or RPMI media with 10% FBS, 1% Penicillin/Streptomycin, 5 μM Oligomycin (Sigma-Aldrich, St. Louis, Mo., Catalog #04876) or RPMI media with 10% FBS, 1% Penicillin/Streptomycin, 5 μM Rotenone (Sigma-Aldrich, St. Louis, Mo., Catalog #R8875). […] Cells were counted and cell survival (%) was recorded two (2) days and seven (7) days post radiation.

HEM = assay: Colony formation (clonogenic) assay after irradiation; assay type: cell-based, human; conditions: HEM treated with mitochondrial inhibitors and irradiated; FIG. 4B
Protocol: (§1) Radiated cells were washed with 1× phosphate buffer saline (PBS), trypsinized and harvested in corning tubes (15 ml, BD Falcon). These cells were serially diluted (1:100, 1:1000, 1:10000) and plated in Petri-dishes (Tissue culture Petri dishes, BD Falcon) with complete media and allowed to grow colonies for 7-21 days. Colonies were stained with Hematoxylin for 30 min after fixing the cells in 100% ethanol for about 20-30 min. Petridishes with stained colonies were washed in water, dried overnight and counts were recorded.
(§2) The colony formation assay, or clonogenic assay, is used to determine the ability of a cell to proliferate (i.e., maintain its reproductive ability to form a colony or clone). This assay has been widely used in radiation biology to assess the effects of ionizing radiation on cells (Sadagopan, R. et al., “Characterization and clinical evaluation of a novel IMRT quality assurance system.” Journal of Applied Clinical Medical Physics 10.2 (2009)). In this study, three (3) melanoma cell lines were used to compare the effects of different radiation dose rates on cell proliferation. Melanoma cell lines were selected based on their known resistance to radiation therapy. Human epidermal melanocytes (HEM) were used to determine the effect of ionizing radiation on normal cells.
(§3) Cells were maintained and irradiated as described in Example 1. Irradiated cells were washed with 1× phosphate buffer saline (PBS) (Sigma Aldrich, St. Louis, Mo., Catalog No. P5493, or equivalent), trypsinized and harvested in 15 mL conical tubes (BD-Falcon, Franklin Lakes, N.J., Catalog #352095 or equivalent). The cells were serially diluted (1:100, 1:1000, 1:10000) and plated in Petri-dishes (BD-Falcon, Franklin Lakes, N.J., Catalog #351007 or equivalent) with the appropriate complete media and allowed to grow colonies for 7-21 days. Colonies were stained with hematoxylin (Sigma-Aldrich, St. Louis, Mo., Catalog #H9627 or equivalent) for 30 minutes after fixing the cells in 100% ethanol (VWR, Radnor, Pa., Catalog #71006-012 or equivalent) for about 20-30 minutes. Petridishes with stained colonies were washed in water, dried overnight and colony counts were recorded.

[5] = tested on: melanoma cells WC00046, WC00060 and WC00081; assay: as above; assay type: cell-based, human; conditions: FIG. 4B
Protocol: as §1, §2, §3

[6] = WC00046, 2,400 mu/min, treated with mitochondrial inhibitors
[7] = WC00046, WC00060 and WC00081, 2,400 mu/min, relative to irradiation alone

CC[C@H]1/C=C/C=C/C[C@@H](C)[C@H](O)[C@@](C)(O)C(=O)[C@@H](C)[C@H](O)[C@@H](C)C(=O)[C@@H](C)[C@H](O)[C@@H](C)/C=C/C(=O)O[C@@H]2[C@H](C)[C@H](CC1)O[C@]1(CC[C@H](C)[C@H](C[C@@H](C)O)O1)[C@H]2C [Oligomycin]
cell killing of melanoma cells [1]: augment the cell killing | survival rates [1]: significantly lower survival rates | cell survival (%) (melanoma cells [2]): further reduced | mitochondrial activity (Mitotracker Red fluorescence) (melanoma cells [3]): reduced below basal levels | survival rates [4]: significantly lower survival rates | viability and proliferation (HEM): retained viability and proliferation | cell survival (%) [5, 6]: 25% | cell survival (%) [5, 7]: further reduced

C=C(C)[C@H]1Cc2c(ccc3c2O[C@@H]2COc4cc(OC)c(OC)cc4[C@@H]2C3=O)O1 [Rotenone]
cell killing of melanoma cells [1]: augment the cell killing | survival rates [1]: significantly lower survival rates | cell survival (%) (melanoma cells [2]): further reduced | mitochondrial activity (Mitotracker Red fluorescence) (melanoma cells [3]): reduced below basal levels | survival rates [4]: significantly lower survival rates | viability and proliferation (HEM): retained viability and proliferation | cell survival (%) [5, 6]: 25% | cell survival (%) [5, 7]: further reduced

From patent publication US10195466B2, “Method for treating skin cancer using radiation therapy” (HACKENSACK UNIVERSITY MEDICAL CENTER, priority 2014, dated 2019)
